Assay results taken from US20230066946A1, “1,5-DIPHENYLPYRAZOLYL-3-OXYALKYL ACIDS AND 1-PHENYL-5-THIENYLPYRAZOLYL-3-OXYALKYL ACIDS AND THE USE THEREOF FOR CONTROL OF UNWANTED PLANT GROWTH” (Bayer Aktiengesellschaft, priority 2019, published 2023).

Tests used:
ECHCG [1] = test: Pre-emergence herbicidal action against ECHCG; assay type: in vivo, Echinochloa crus-galli; settings: scored visually after about 3 weeks vs untreated controls, 100% = plants have died, 0% = like control plants
Procedure, shortened: (§1)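 Greenhouse pot test on sown, soil-covered weed seeds; spray of WP or EC formulation at 1280 or 320 g/ha onto covering soil. Effect rated visually after about 3 weeks (0% = like control, 100% = dead).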

SETVI [2] = test: Pre-emergence herbicidal action against SETVI; assay type: in vivo, Setaria viridis; settings: 1280 g/ha, scored visually after about 3 weeks vs untreated controls
Procedure, shortened: as §1

AMARE [3] = test: Pre-emergence herbicidal action against AMARE; assay type: in vivo, Amaranthus retroflexus; settings: scored visually after about 3 weeks vs untreated controls; for Pre-emergence action at 320 g/ha against AMARE in %: 100% = plants have died, 0% = like control plants; for Pre-emergence action against AMARE in %: 1280 g/ha
Procedure, shortened: as §1

POLCO [4] = test: Pre-emergence herbicidal action against POLCO; assay type: in vivo, Polygonum convolvulus; settings: 320 g/ha, scored visually after about 3 weeks vs untreated controls
Procedure, shortened: as §1

STEME [5] = test: Pre-emergence herbicidal action against STEME; assay type: in vivo, Stellaria media; settings: scored visually after about 3 weeks vs untreated controls
Procedure, shortened: as §1

VERPE [6] = test: Pre-emergence herbicidal action against VERPE; assay type: in vivo, Veronica persica; settings: 320 g/ha, scored visually after about 3 weeks vs untreated controls
Procedure, shortened: as §1

HORMU [7] = test: Pre-emergence herbicidal action against HORMU; assay type: in vivo, Hordeum murinum; settings: 320 g/ha, scored visually after about 3 weeks vs untreated controls
Source text: Seeds of mono- and dicotyledonous weed plants are placed in plastic pots in sandy loam soil (doubly sown with one species each of mono- or dicotyledonous weed plants per pot) and covered with soil. The compounds of the invention, formulated in the form of wettable powders (WP) or as emulsion concentrates (EC), are then applied onto the surface of the covering soil as aqueous suspension or emulsion with addition of 0.5% additive at a water application rate equivalent to 600 litres per hectare. After the treatment, the pots are placed in a greenhouse and kept under good growth conditions for the trial plants. After about 3 weeks, the effect of the preparations is scored visually in comparison with untreated controls as percentages. For example, 100% activity=the plants have died, 0% activity=like control plants. [table] Tables 4.1-4.15 below show the effects of selected compounds of the general formula (I) according to Tables 1 to 3 on various harmful plants at an application rate corresponding to 1280 or 320 g/ha, which have been obtained by the aforementioned experimental method.

AMARE [8] = test: Post-emergence herbicidal action against AMARE; assay type: in vivo, Amaranthus retroflexus; settings: visual rating about 3 weeks after treatment
Procedure, shortened: (§2)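 Weeds grown in sandy loam under greenhouse conditions were sprayed at the one-leaf stage, 2-3 weeks after sowing. Compounds were applied as WP or EC formulations in water with 0.5% additive at 600 L/ha, at 1280 or 320 g/ha. Activity was rated visually about 3 weeks later against untreated controls (0-100%).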

MATIN = test: Post-emergence herbicidal action against MATIN; assay type: in vivo, Matricaria inodora; settings: visual rating about 3 weeks after treatment
Procedure, shortened: as §2

POLCO [9] = test: Post-emergence herbicidal action against POLCO; assay type: in vivo, Polygonum convolvulus; settings: 320 g/ha, visual rating about 3 weeks after treatment
Procedure, shortened: as §2

STEME [10] = test: Post-emergence herbicidal action against STEME; assay type: in vivo, Stellaria media; settings: visual rating about 3 weeks after treatment
Procedure, shortened: as §2

VIOTR = test: Post-emergence herbicidal action against VIOTR; assay type: in vivo, Viola tricolor; settings: 320 g/ha, visual rating about 3 weeks after treatment
Procedure, shortened: as §2

HORMU [11] = test: Post-emergence herbicidal action against HORMU; assay type: in vivo, Hordeum murinum; settings: 320 g/ha, visual rating about 3 weeks after treatment
Protocol: (§3) [table] Seeds of mono- and dicotyledonous weed plants are placed in plastic pots in sandy loam soil (twin sowing with one species each of mono- or dicotyledonous weed plants per pot), covered with soil and cultivated in a greenhouse under controlled growth conditions. 2 to 3 weeks after sowing, the test plants are treated at the one-leaf stage. The compounds of the invention, formulated in the form of wettable powders (WP) or as emulsion concentrates (EC), are applied to the green parts of the plants as aqueous suspension or emulsion with addition of 0.5% additive at a water application rate equivalent to 600 litres per hectare. After the test plants have been kept in the greenhouse under optimum growth conditions for about 3 weeks, the activity of the preparations is rated visually in comparison to untreated controls. For example, 100% activity=the plants have died, 0% activity=like control plants. Tables 5.1-5.16 below show the effects of selected compounds of the general formula (I) according to Tables 1 to 3 on various harmful plants at an application rate corresponding to 1280 or 320 g/ha, which have been obtained by the aforementioned experimental method.

harmful plants = test: Pre-emergence herbicidal action, summary of Tables 4.1-4.15; assay type: in vivo; settings: result in words
Procedure, shortened: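 Percent herbicidal action (100% = plants dead, 0% = like controls) was assessed visually about 3 weeks after treatment. Application rates of 1280 or 320 g/ha were applied to the covering soil of freshly sown sandy-loam pots, in 600 l/ha water with 0.5% additive, before emergence.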

ECHCG [12] = test: Post-emergence herbicidal action against ECHCG; assay type: in vivo, Echinochloa crus-galli; settings: 1280 g/ha, post-emergence at one-leaf stage, rated visually after about 3 weeks vs untreated controls
Procedure, shortened: as §2

LOLRI = test: Post-emergence herbicidal action against LOLRI; assay type: in vivo, Lolium rigidum; settings: 1280 g/ha, post-emergence at one-leaf stage, rated visually after about 3 weeks vs untreated controls
Protocol: as §3

VERPE [13] = test: Post-emergence herbicidal action against VERPE; assay type: in vivo, Veronica persica; settings: 320 g/ha, visual rating about 3 weeks after treatment
Procedure, shortened: as §2

SETVI [14] = test: Post-emergence herbicidal action against SETVI; assay type: in vivo, Setaria viridis; settings: 1280 g/ha, post-emergence at one-leaf stage, rated visually after about 3 weeks vs untreated controls
Procedure, shortened: as §2

PHBPU = test: Post-emergence herbicidal action against PHBPU; assay type: in vivo, Pharbitis purpurea; settings: 320 g/ha, visual rating about 3 weeks after treatment
Procedure, shortened: as §2

| SMILES | Pre-emergence action at 1280 g/ha against ECHCG in % (ECHCG [1]) | Pre-emergence action against SETVI in % (SETVI [2]) | Pre-emergence action at 320 g/ha against AMARE in % (AMARE [3]) | Pre-emergence action against AMARE in % (AMARE [3]) | Pre-emergence action against POLCO in % (POLCO [4]) | Pre-emergence action against STEME in % (STEME [5]; 320 g/ha) | Pre-emergence action against STEME in % (STEME [5]; 1280 g/ha) | Pre-emergence action against VERPE in % (VERPE [6]) | Pre-emergence action against HORMU in % (HORMU [7]) | Post-emergence action against AMARE in % (AMARE [8]; 320 g/ha) | Post-emergence action against MATIN in % (MATIN; 320 g/ha) | Post-emergence action against MATIN in % (MATIN; 1280 g/ha) | Post-emergence action against POLCO in % (POLCO [9]) | Post-emergence action against STEME in % (STEME [10]; 320 g/ha) | Post-emergence action against STEME in % (STEME [10]; 1280 g/ha) | Post-emergence action against VIOTR in % (VIOTR) | Post-emergence action against HORMU in % (HORMU [11]) | herbicidal efficacy against harmful plants in the case of pre-emergence treatment (harmful plants) | Post-emergence action against ECHCG in % (ECHCG [12]) | Post-emergence action against AMARE in % (AMARE [8]; 1280 g/ha) | also measured |
| --- | --- | --- | --- | --- | --- | --- | --- | --- | --- | --- | --- | --- | --- | --- | --- | --- | --- | --- | --- | --- | --- |
| CC(Oc1nn(-c2ccccc2)c(-c2ccc(F)cc2)c1Cl)C(=O)O (stereo not drawn) [I-139] | 100% | 100% | 100% | 100% | 90% | 100% | 100% | 100% | 90% | 90% | 80% | 90% | 90% | 80% | 90% | 80% | 80% | good herbicidal efficacy | – | – | – |
| COC(=O)[C@@H](C)Oc1nn(-c2ccccc2)c(-c2ccc(F)cc2)c1C#N [I-130] | 100% | 100% | 100% | 100% | 90% | 90% | 100% | 100% | 100% | 90% | 90% | 90% | 90% | 90% | 100% | 90% | 80% | – | 100% | 90% | Post-emergence action against LOLRI in % (LOLRI): 90%; Post-emergence action against VERPE in % (VERPE [13]): 90% |
| COC(=O)[C@@H](C)Oc1nn(-c2cccc(F)c2)c(-c2cccc(F)c2)c1C#N [I-125] | 100% | 100% | 100% | 100% | 100% | 90% | 100% | 90% | 90% | 90% | 80% | 90% | 80% | – | 90% | 90% | 90% | good herbicidal efficacy | 90% | 90% | Post-emergence action against SETVI in % (SETVI [14]): 90%; Post-emergence action against PHBPU in % (PHBPU): 80%; Post-emergence action against VERPE in % (VERPE [13]): 80% |
| C=CCNC(=O)COc1nn(-c2c(F)cccc2F)c(-c2ccc(F)c(F)c2)c1[N+](=O)[O-] [III-069] | 100% | 100% | 100% | 90% | 90% | 100% | 90% | 100% | 90% | 90% | 80% | – | 80% | 90% | – | – | 80% | good herbicidal efficacy | – | – | Post-emergence action against VERPE in % (VERPE [13]): 90% |
| COC(=O)C(C)Oc1nn(-c2ccccc2F)c(-c2ccc(F)c(F)c2)c1C#N (stereo not drawn) [I-171] | 90% | 100% | – | 100% | – | – | 100% | – | – | – | – | 90% | – | – | 100% | – | – | – | 100% | 90% | Post-emergence action against LOLRI in % (LOLRI): 100%; Post-emergence action against SETVI in % (SETVI [14]): 100% |
